Patent US6740304B2, “Receptor binding conjugates” (priority 1999, dated 2004)

Target: T1, folate binding protein (FBP) (Bos taurus, UniProt P02702)
T1 construct: purchased Sigma
Experiment: Binding assay on immobilised folate binding protein (Scatchard type plot)
Details: Scatchard type plot (FIG. 1), for the conjugate assuming at least one binding-reactive folic acid per HIgG
Description: Immobilised folate binding protein (FBP) was used to investigate the binding characteristics of the folic acid conjugates. FBP (Sigma) with a binding capacity of […] folic acid per milligram protein was immobilised on high protein binding 96 well EIA/RIA assay plates (Costar Corning Inc. N.Y., USA)
FBP was labelled with ^125I by the Iodogen method and the labelled protein was isolated by eluting the reaction mixture on a PD-10 column. Purified ^125I-FBP in concentrations ranging form […] in PBS were added in to the 96 well assay plates and incubated on a rotating rack at 4° C. overnight. […] The immobilised quantities of the various concentrations of quadruplicates of ^125I FBP was determined as the ratio of L3/L1+L2 after measuring the radioactivity of the respective samples by liquid scintillation counting.
Wells were incubated with a solution of FBP in PBS and washed three times with PBS after removal of the incubation mixture. […] The specifically bound fraction of folic acid was determined by a similar method as described for ^125I-FBP, correcting for the faction of ^3H-FA retained in the wells that were preincubated with folic acid. […]
The specifically bound ^3H-FA was plotted against the concentration of ^3H-FA in a Scatchard type plot (FIG. 1). […] The following values were determined from the binding assay: […]

T1 sequence (P02702 20-234): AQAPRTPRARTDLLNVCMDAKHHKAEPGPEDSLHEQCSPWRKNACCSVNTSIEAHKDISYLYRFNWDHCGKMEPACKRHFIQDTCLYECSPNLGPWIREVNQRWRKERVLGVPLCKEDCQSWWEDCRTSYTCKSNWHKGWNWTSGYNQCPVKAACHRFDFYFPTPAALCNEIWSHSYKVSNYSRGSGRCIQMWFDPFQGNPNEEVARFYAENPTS

## ^3H-Folic acid [^3H-FA]
  Ka: 2×10^8
